Peptide text beside a SMILES is read from it. * marks the point of attachment. Cbz = O=C(OCc1ccccc1)*

Integrin alpha-IIb/beta-3, sequence (P05106 27-788 limits assumed): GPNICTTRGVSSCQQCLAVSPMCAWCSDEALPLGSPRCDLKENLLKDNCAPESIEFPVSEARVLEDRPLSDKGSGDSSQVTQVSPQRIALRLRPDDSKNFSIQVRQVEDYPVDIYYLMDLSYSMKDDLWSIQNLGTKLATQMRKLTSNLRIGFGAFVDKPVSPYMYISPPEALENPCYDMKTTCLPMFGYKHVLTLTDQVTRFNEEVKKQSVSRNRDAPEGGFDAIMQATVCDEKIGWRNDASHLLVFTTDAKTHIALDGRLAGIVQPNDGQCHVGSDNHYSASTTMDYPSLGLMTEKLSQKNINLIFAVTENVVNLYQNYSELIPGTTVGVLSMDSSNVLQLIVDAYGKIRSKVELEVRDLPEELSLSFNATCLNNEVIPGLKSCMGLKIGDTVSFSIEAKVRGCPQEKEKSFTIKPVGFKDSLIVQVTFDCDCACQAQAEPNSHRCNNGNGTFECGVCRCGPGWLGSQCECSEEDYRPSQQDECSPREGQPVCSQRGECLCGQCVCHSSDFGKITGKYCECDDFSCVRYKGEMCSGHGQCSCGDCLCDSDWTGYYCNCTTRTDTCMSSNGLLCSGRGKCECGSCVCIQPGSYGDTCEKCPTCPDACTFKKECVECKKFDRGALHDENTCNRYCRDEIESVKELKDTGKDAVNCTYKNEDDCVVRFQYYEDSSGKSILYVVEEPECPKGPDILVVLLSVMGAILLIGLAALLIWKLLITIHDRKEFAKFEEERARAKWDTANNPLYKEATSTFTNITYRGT
Integrin alpha-IIb/beta-3, sequence (P08514 32-887 limits assumed): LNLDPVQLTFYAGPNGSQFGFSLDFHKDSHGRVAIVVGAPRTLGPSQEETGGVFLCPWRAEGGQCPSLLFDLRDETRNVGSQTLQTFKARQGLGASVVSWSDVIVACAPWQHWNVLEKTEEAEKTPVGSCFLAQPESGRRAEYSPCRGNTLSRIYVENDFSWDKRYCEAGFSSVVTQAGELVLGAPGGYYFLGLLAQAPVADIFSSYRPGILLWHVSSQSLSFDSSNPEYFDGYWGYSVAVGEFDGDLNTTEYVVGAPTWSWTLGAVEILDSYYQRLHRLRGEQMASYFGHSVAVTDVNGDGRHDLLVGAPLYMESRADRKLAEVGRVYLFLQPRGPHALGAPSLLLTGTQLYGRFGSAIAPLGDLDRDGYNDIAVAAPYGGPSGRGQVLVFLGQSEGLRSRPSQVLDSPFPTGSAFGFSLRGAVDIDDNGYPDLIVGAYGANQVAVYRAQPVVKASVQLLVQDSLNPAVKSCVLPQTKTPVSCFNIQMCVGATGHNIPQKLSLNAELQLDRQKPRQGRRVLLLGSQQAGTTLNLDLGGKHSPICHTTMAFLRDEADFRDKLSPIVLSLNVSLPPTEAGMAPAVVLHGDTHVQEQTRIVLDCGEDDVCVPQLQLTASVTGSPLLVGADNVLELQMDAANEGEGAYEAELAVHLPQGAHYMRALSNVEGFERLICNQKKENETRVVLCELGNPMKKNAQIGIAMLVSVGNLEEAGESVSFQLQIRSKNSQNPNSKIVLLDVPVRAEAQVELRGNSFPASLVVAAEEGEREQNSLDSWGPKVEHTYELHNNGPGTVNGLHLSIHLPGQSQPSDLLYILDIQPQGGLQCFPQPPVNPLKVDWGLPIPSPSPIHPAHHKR
Integrin alpha-IIb/beta-3, sequence (P08514 891-1039 limits assumed): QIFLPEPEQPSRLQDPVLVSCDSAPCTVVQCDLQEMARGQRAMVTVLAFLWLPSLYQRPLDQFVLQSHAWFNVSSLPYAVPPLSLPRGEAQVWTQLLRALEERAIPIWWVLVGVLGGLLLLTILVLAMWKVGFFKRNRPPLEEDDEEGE

One experiment has as its target Integrin alpha-IIb/beta-3 (Homo sapiens, UniProt P05106+P08514). Briefly: Inhibition of fibrinogen binding to purified immobilized alpha IIb beta-3 integrin isolated from membranes of human blood platelets.
In general, IC50 refers to the midpoint of a concentration-inhibition curve. With `CC(C)C[C@H](NC(=O)[C@H](CC(=O)O)N1CC[C@H](NC(=O)[C@H](CCCN=C(N)N)NC(=O)OCc2ccccc2)C1=O)C(=O)O`, the IC50 came to 560 nM.

As to `N=C(N)c1ccc(CC(=O)N[C@H]2CCN([C@@H](CC(=O)O)C(=O)N[C@H](C(=O)O)C34CC5CC(CC(C5)C3)C4)C2=O)cc1`, the IC50 was 2 nM.

In the case of `N=C(N)NCCC[C@H](NC(=O)OCc1ccccc1)C(=O)N[C@@H]1CCN([C@@H](CC(=O)O)C(=O)N[C@@H](Cc2ccccc2)C(=O)O)C1=O`, the IC50 is over 100000 nM.

With `N=C(N)c1ccc(CC(=O)N[C@H]2CCN([C@@H](CC(=O)O)C(=O)N[C@@H](Cn3ccc4ccccc43)C(=O)O)C2=O)cc1`, the IC50 amounted to 20 nM.

On to `COC(=O)[C@H](CC12CC3CC(CC(C3)C1)C2)NC(=O)[C@H](CC(=O)O)N1CC[C@H](NC(=O)Cc2ccc(C(=N)N)cc2)C1=O`, for which the IC50 stood at 20 nM.

`COC(=O)[C@H](Cn1ccc2ccccc21)NC(=O)[C@H](CC(=O)O)N1CC[C@H](NC(=O)[C@H](CCCN=C(N)N)NC(=O)OCc2ccccc2)C1=O` gave an IC50 of 1220 nM.

`COC(=O)[C@H](Cc1ccccc1)NC(=O)[C@H](CC(=O)O)NC(=O)CNC(=O)[C@H](CCCN=C(N)N)NC(=O)OCc1ccccc1` (Cbz-RGDF-OMe) returned an IC50 of 270 nM.

In turn, `CC(C)[C@H](NC(=O)[C@H](CC(=O)O)NC(=O)CNC(=O)[C@H](CCCN=C(N)N)NC(=O)OCc1ccccc1)C(=O)O` (Cbz-RGDV-OH) yielded an IC50 of 110 nM.

In turn, `COC(=O)[C@H](Cc1ccccc1)NC(=O)[C@H](CC(=O)O)N1CC[C@H](NC(=O)[C@H](CCCN=C(N)N)NC(=O)OCc2ccccc2)C1=O` came in with an IC50 of 770 nM.

With `N=C(N)c1ccc(CC(=O)N[C@H]2CCN([C@@H](CC(=O)O)C(=O)N[C@@H](CC34CC5CC(CC(C5)C3)C4)C(=O)O)C2=O)cc1`, the IC50 was 5 nM.

In the case of `N=C(N)NCCC[C@H](NC(=O)OCc1ccccc1)C(=O)N[C@H]1CCN([C@@H](CC(=O)O)C(=O)N[C@@H](Cn2ccc3ccccc32)C(=O)O)C1=O`, the IC50 was 1070 nM.

`CC(C)[C@H](NC(=O)[C@@H](CC(=O)O)N1CC[C@H](NC(=O)Cc2ccc(C(=N)N)cc2)C1=O)C(=O)O` came in with an IC50 of over 100000 nM.

Compound `COC(=O)[C@H](CC12CC3CC(CC(C3)C1)C2)NC(=O)[C@H](CC(=O)O)N1CC[C@H](NC(=O)[C@H](CCCN=C(N)N)NC(=O)OCc2ccccc2)C1=O` returned an IC50 of 510 nM.

Compound `COC(=O)[C@H](Cn1ccc2ccccc21)NC(=O)[C@H](CC(=O)O)N1CC[C@H](NC(=O)Cc2ccc(C(=N)N)cc2)C1=O` gave an IC50 of 120 nM.

As to `CC(C)C[C@H](NC(=O)[C@H](CC(=O)O)N1CC[C@H](NC(=O)Cc2ccc(C(=N)N)cc2)C1=O)C(=O)O`, the IC50 turned out to be 40 nM.

The compound `COC(=O)[C@H](Cc1ccccc1)NC(=O)[C@H](CC(=O)O)NC(=O)[C@@H](C)NC(=O)[C@H](CCCN=C(N)N)NC(=O)OCc1ccccc1` came in with an IC50 of over 100000 nM.

Compound `COC(=O)[C@H](Cc1ccccc1)NC(=O)[C@H](CC(=O)O)NC(=O)[C@H](C)NC(=O)[C@H](CCCNC(=N)N)NC(=O)OCc1ccccc1` came in with an IC50 of 78000 nM.

For another experiment, the species on record is Homo sapiens. Briefly: Inhibition of ADP-induced aggregation of human blood platelets in the presence of fibrinogen. It counts as functional.
Consider `CC(C)C[C@H](NC(=O)[C@H](CC(=O)O)N1CC[C@H](NC(=O)[C@H](CCCN=C(N)N)NC(=O)OCc2ccccc2)C1=O)C(=O)O`, for which the IC50 was 12800 nM.

Turning to `N=C(N)c1ccc(CC(=O)N[C@H]2CCN([C@@H](CC(=O)O)C(=O)N[C@H](C(=O)O)C34CC5CC(CC(C5)C3)C4)C2=O)cc1`, the IC50 stood at 40 nM.

For `N=C(N)NCCC[C@H](NC(=O)OCc1ccccc1)C(=O)N[C@@H]1CCN([C@@H](CC(=O)O)C(=O)N[C@@H](Cc2ccccc2)C(=O)O)C1=O`, the IC50 was over 100000 nM.

As to `N=C(N)c1ccc(CC(=O)N[C@H]2CCN([C@@H](CC(=O)O)C(=O)N[C@@H](Cn3ccc4ccccc43)C(=O)O)C2=O)cc1`, the IC50 stood at 740 nM.

As for `COC(=O)[C@H](CC12CC3CC(CC(C3)C1)C2)NC(=O)[C@H](CC(=O)O)N1CC[C@H](NC(=O)Cc2ccc(C(=N)N)cc2)C1=O`, the IC50 came to 360 nM.

In the case of `COC(=O)[C@H](Cn1ccc2ccccc21)NC(=O)[C@H](CC(=O)O)N1CC[C@H](NC(=O)[C@H](CCCN=C(N)N)NC(=O)OCc2ccccc2)C1=O`, the IC50 came to 25100 nM.

As to `COC(=O)[C@H](Cc1ccccc1)NC(=O)[C@H](CC(=O)O)NC(=O)CNC(=O)[C@H](CCCN=C(N)N)NC(=O)OCc1ccccc1` (Cbz-RGDF-OMe), the IC50 came to 13000 nM.

As to `CC(C)[C@H](NC(=O)[C@H](CC(=O)O)NC(=O)CNC(=O)[C@H](CCCN=C(N)N)NC(=O)OCc1ccccc1)C(=O)O` (Cbz-RGDV-OH), the IC50 is 3100 nM.

In the case of `COC(=O)[C@H](Cc1ccccc1)NC(=O)[C@H](CC(=O)O)N1CC[C@H](NC(=O)[C@H](CCCN=C(N)N)NC(=O)OCc2ccccc2)C1=O`, the IC50 was found to be 85100 nM.

As to `N=C(N)c1ccc(CC(=O)N[C@H]2CCN([C@@H](CC(=O)O)C(=O)N[C@@H](CC34CC5CC(CC(C5)C3)C4)C(=O)O)C2=O)cc1`, the IC50 is 100 nM.

Take `N=C(N)NCCC[C@H](NC(=O)OCc1ccccc1)C(=O)N[C@H]1CCN([C@@H](CC(=O)O)C(=O)N[C@@H](Cn2ccc3ccccc32)C(=O)O)C1=O`: the IC50 was 10000 nM.

As for `CC(C)[C@H](NC(=O)[C@@H](CC(=O)O)N1CC[C@H](NC(=O)Cc2ccc(C(=N)N)cc2)C1=O)C(=O)O`, the IC50 is over 100000 nM.

In the case of `COC(=O)[C@H](CC12CC3CC(CC(C3)C1)C2)NC(=O)[C@H](CC(=O)O)N1CC[C@H](NC(=O)[C@H](CCCN=C(N)N)NC(=O)OCc2ccccc2)C1=O`, the IC50 is 4000 nM.

Take `COC(=O)[C@H](Cn1ccc2ccccc21)NC(=O)[C@H](CC(=O)O)N1CC[C@H](NC(=O)Cc2ccc(C(=N)N)cc2)C1=O`: the IC50 is 4400 nM.

For `CC(C)C[C@H](NC(=O)[C@H](CC(=O)O)N1CC[C@H](NC(=O)Cc2ccc(C(=N)N)cc2)C1=O)C(=O)O`, the IC50 came out at 360 nM.

Turning to `COC(=O)[C@H](Cc1ccccc1)NC(=O)[C@H](CC(=O)O)NC(=O)[C@@H](C)NC(=O)[C@H](CCCN=C(N)N)NC(=O)OCc1ccccc1`, the IC50 was over 100000 nM.

As for `COC(=O)[C@H](Cc1ccccc1)NC(=O)[C@H](CC(=O)O)NC(=O)[C@H](C)NC(=O)[C@H](CCCNC(=N)N)NC(=O)OCc1ccccc1`, the 50% inhibitory concentration (IC50) is over 100000 nM.
